Source: patent US20180170941A1 (priority 2016, published 2018)

target: T1, α5β3γ2 GABAA receptors (Ltk cell membranes) (Homo sapiens, UniProt P18507+P31644); assay: Binding activity of test compounds on GABAAR: inhibition of [3H]Ro15-1788 binding; conditions: not given
T1 construct: membranes
Summary of the method: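 Membranes from dexamethasone-induced Ltk cells (α5 line: 0.5 μM, 1 day); binding with [3H]Ro15-1788 for 1 h at 4 °C in 50 mM KH2PO4, 1 mM EDTA, 0.2 M KCl, pH 7.4, 0.2 mg/ml α5 protein. Nonspecific binding defined by 10 μM diazepam; filtration, scintillation counting, triplicates.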

T1 sequence (P31644 32-462): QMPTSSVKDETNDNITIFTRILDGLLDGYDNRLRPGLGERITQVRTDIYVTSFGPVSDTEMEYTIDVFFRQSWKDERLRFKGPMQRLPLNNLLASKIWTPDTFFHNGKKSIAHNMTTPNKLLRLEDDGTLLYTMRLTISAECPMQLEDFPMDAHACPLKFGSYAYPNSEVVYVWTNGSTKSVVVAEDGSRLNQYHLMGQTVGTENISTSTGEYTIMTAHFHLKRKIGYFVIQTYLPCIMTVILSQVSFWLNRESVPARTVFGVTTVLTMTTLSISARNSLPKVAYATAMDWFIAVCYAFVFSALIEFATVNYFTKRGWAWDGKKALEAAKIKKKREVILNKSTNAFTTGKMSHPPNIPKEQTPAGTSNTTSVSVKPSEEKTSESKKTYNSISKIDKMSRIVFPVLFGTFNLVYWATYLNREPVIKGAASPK
T1 sequence (P28472 26-473 partner): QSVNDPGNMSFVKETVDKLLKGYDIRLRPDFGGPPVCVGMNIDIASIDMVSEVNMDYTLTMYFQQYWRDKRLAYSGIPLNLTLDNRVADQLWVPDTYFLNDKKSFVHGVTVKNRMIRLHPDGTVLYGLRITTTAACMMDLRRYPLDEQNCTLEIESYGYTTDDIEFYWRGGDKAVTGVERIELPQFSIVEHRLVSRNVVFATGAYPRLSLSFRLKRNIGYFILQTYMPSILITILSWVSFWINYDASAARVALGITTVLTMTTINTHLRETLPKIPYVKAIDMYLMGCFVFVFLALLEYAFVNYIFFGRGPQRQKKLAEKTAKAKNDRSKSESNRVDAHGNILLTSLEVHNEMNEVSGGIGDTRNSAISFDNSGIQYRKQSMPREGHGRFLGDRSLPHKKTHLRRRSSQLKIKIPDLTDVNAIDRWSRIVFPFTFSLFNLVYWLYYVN
T1 sequence (P18507 40-475): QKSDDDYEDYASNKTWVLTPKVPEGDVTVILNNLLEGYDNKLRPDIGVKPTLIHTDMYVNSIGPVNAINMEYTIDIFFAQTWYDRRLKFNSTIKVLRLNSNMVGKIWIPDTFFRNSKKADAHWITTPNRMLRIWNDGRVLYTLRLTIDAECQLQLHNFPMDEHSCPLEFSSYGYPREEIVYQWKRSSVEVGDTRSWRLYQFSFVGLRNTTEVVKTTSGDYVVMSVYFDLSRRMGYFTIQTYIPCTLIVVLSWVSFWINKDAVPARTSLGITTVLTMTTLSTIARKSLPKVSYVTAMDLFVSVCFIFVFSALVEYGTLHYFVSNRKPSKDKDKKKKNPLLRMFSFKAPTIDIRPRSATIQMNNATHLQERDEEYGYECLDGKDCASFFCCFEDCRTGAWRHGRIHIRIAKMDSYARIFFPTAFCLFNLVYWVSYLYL

`COCc1nnc2n1Cc1cncn1-c1ccc(OC)cc1-2` [Compound 131] and `COc1ccc2c(c1)-c1nnc(COc3ccccc3)n1Cc1c(Cc3ccccc3)ncn1-2` [Compound 142] cannot be ordered by Ki: greater than 1000 nM for the first, greater than 1000 nM for the second.

`Clc1ccc2c(c1)-c1nnc(COc3ccccc3)n1Cc1c(C3OCCO3)ncn1-2` [Compound 204] and `CC#Cc1nc(C)n2c1Cn1c(COC(C)C)nnc1-c1cc(Cl)ccc1-2` [Compound 306] cannot be ordered by Ki: greater than 1000 nM for the first, greater than 1000 nM for the second.

same assay, conditions: GABA α5 Binding Ki Values, inhibition of [3H]Ro15-1788 binding; reported as ranges

`COc1ccc2c(c1)-n1nnc(COc3ccccc3)c1Cc1c(C#N)ncn1-2` [Compound 224] and `COc1ccc2c(c1)-n1nnc(Cc3ccccc3)c1Cc1c(C#N)ncn1-2` [Compound 207] cannot be ordered by Ki: less than 100 nM for the first, less than 100 nM for the second.

`COCc1nnc2n1Cc1c(C3=NC[C@@H](C)O3)ncn1-c1ccc(Cl)cc1-2` [Compound 294] and `COCc1nnc2n1Cc1c(C3=N[C@H](C)CO3)ncn1-c1ccc(Cl)cc1-2` [Compound 282] cannot be ordered by Ki: less than 100 nM for the first, less than 100 nM for the second.

`COc1ccc2c(c1)-n1nnc(CN3CCCC3)c1Cc1c(C#N)ncn1-2` [Compound 250] and `COc1ccc2c(c1)-n1nnc(/C=C/c3ccccc3)c1Cc1c(C#N)ncn1-2` [Compound 262] cannot be ordered by Ki: greater than 1000 nM for the first, greater than 1000 nM for the second.

First: CC(C)OCc1nnc2n1Cc1c(-c3ncco3)ncn1-c1ccc(Cl)cc1-2 [Compound 327]
Second: CC(C)OCc1nnc2n1Cc1c(C3=NCCO3)ncn1-c1ccc(Cl)cc1-2 [Compound 316]
The Ki of the first is lower: less than 100 nM for the first, 100 to 1000 nM for the second. The first binds more tightly here.

`COCc1nnc2n1Cc1c(Br)ncn1-c1ccc(OC)cc1-2` [Compound 129] and `CC#Cc1ncn2c1Cn1c(COC)nnc1-c1cc(Cl)ccc1-2` [Compound 339] cannot be ordered by Ki: less than 100 nM for the first, less than 100 nM for the second.

`CC(C)OC(=O)c1ncn2c1Cn1c(COc3ccccc3)nnc1-c1cc(F)ccc1-2` [Compound 156] and `CC(C)c1nc(-c2ncn3c2Cn2c(COc4ccccc4)nnc2-c2cc(F)ccc2-3)no1` [Compound 147] cannot be ordered by Ki: less than 100 nM for the first, less than 100 nM for the second.

Compared with `COc1ccc2c(c1)-n1nncc1Cc1c(C3=N[C@@H](c4cccc(C(F)(F)F)c4)CO3)ncn1-2` [Compound 371], `COc1ccc2c(c1)-n1nncc1Cc1c(-c3nc(-c4cccc(C(F)(F)F)c4)co3)ncn1-2` [Compound 389] is higher in Ki: 100 to 1000 nM for the first, greater than 1000 nM for the second.

`COCc1nnc2n1Cc1c(C#CCc3cccc(F)c3)ncn1-c1ccc(Cl)cc1-2` [Compound 421] and `CCOCc1nnc2n1Cc1c(C#Cc3ccccc3F)ncn1-c1ccc(Cl)cc1-2` [Compound 307] cannot be ordered by Ki: less than 100 nM for the first, less than 100 nM for the second.

`CC(C)OCc1nnc2n1Cc1c(C3=N[C@@H](C)CO3)ncn1-c1ccc(Cl)cc1-2` [Compound 287] and `COCc1nnc2n1Cc1c(C3=N[C@@H](C)CO3)ncn1-c1ccc(Cl)cc1-2` [Compound 283] fall in the same range of Ki: 100 to 1000 nM for the first, 100 to 1000 nM for the second.

`FC(F)(F)COCc1nnc2n1Cc1c(C3=N[C@@H](c4ccccc4)CO3)ncn1-c1ccc(Cl)cc1-2` [Compound 304] and `COCc1nnc2n1Cc1c(C3=NC(c4ccccc4)CO3)ncn1-c1ccc(Cl)cc1-2` (stereo not drawn) [Compound 242] cannot be ordered by Ki: less than 100 nM for the first, less than 100 nM for the second.

`CC(C)c1nc(-c2ncn3c2Cn2c(COc4cccc(F)c4)nnc2-c2cc(F)ccc2-3)no1` [Compound 188] and `COc1ccc2c(c1)-c1nnc(COc3cccc4ccccc34)n1Cc1c(-c3noc(C(C)C)n3)ncn1-2` [Compound 177] cannot be ordered by Ki: less than 100 nM for the first, less than 100 nM for the second.

`CCOC(=O)c1ncn2c1Cn1c(COc3ccc(F)cc3)nnc1-c1cc(OC)ccc1-2` [Compound 56] and `CCOC(=O)c1ncn2c1Cn1c(Oc3cccc(OC)c3)nnc1-c1cc(OC)ccc1-2` [Compound 105] cannot be ordered by Ki: less than 100 nM for the first, less than 100 nM for the second.

`COc1ccc2c(c1)-n1nncc1Cc1c(C#Cc3ccccc3F)ncn1-2` [Compound 411] and `Fc1ccccc1C#Cc1ncn2c1Cc1cnnn1-c1cc(Cl)ccc1-2` [Compound 399] cannot be ordered by Ki: less than 100 nM for the first, less than 100 nM for the second.

`COCc1nnc2n1Cc1c(C3=N[C@@H](CC4CCCCC4)CO3)ncn1-c1ccc(Cl)cc1-2` [Compound 266] and `COCc1nnc2n1Cc1c(C3=NCCCO3)ncn1-c1ccc(Cl)cc1-2` [Compound 237] fall in the same range of Ki: 100 to 1000 nM for the first, 100 to 1000 nM for the second.

Compared with `COCc1nnc2n1Cc1c(-c3nc4ccccc4o3)ncn1-c1ccc(Cl)cc1-2` [Compound 348], `COCc1nnc2n1Cc1c(-c3nc(C)no3)ncn1-c1ccc(Cl)cc1-2` [Compound 198] is lower in Ki: 100 to 1000 nM for the first, less than 100 nM for the second. The second binds more tightly here.

`COc1ccc2c(c1)-n1nncc1Cc1c(-c3ncco3)ncn1-2` [Compound 344] and `C#Cc1ncn2c1Cc1cnnn1-c1cc(OC)ccc1-2` [Compound 403] cannot be ordered by Ki: less than 100 nM for the first, less than 100 nM for the second.

Going from `Cc1nnn2c1Cc1c(C(=O)OC(C)C)ncn1-c1ccc(F)cc1-2` [Compound 112] to `Cc1nnn2c1Cc1c(C(N)=O)ncn1-c1ccccc1-2` [Compound 117], the Ki rises from less than 100 nM to greater than 1000 nM.

`CCOCc1nnc2n1Cc1c(C3=NC(C)CO3)ncn1-c1ccc(Cl)cc1-2` (stereo not drawn) [Compound 259] and `CCOCc1nnc2n1Cc1c(C3=NCCO3)ncn1-c1ccc(Cl)cc1-2` [Compound 317] cannot be ordered by Ki: less than 100 nM for the first, less than 100 nM for the second.

`COc1ccc2c(c1)-n1nncc1Cc1c(-c3nc(-c4ccc(C(F)(F)F)cc4)co3)ncn1-2` [Compound 390] and `FC(F)(F)c1ccc(-c2coc(-c3ncn4c3Cc3cnnn3-c3cc(Cl)ccc3-4)n2)cc1` [Compound 386] cannot be ordered by Ki: greater than 1000 nM for the first, greater than 1000 nM for the second.

`Clc1ccc2c(c1)-c1nnc(COCc3ccccc3)n1Cc1c(-c3ncco3)ncn1-2` [Compound 350] and `Clc1ccc2c(c1)-c1nnc(COc3ccccc3)n1Cc1c(Br)ncn1-2` [Compound 202] cannot be ordered by Ki: less than 100 nM for the first, less than 100 nM for the second.

Compared with `CCOC(=O)c1ncn2c1Cc1c(Cc3ccccc3Cl)nnn1-c1cc(OC)ccc1-2` [Compound 108], `CCOC(=O)c1ncn2c1Cc1c(-c3ccccc3Cl)nnn1-c1cc(OC)ccc1-2` [Compound 279] is higher in Ki: less than 100 nM for the first, greater than 1000 nM for the second. The first binds more tightly here.

`CCOCc1nnc2n1Cc1c(-c3cc(C)no3)ncn1-c1ccc(Cl)cc1-2` [Compound 278] and `COCc1nnc2n1Cc1c(-c3noc(C)n3)ncn1-c1ccc(Cl)cc1-2` [Compound 427] cannot be ordered by Ki: less than 100 nM for the first, less than 100 nM for the second.

`C#Cc1ccc2c(c1)-c1nnc(COC)n1Cc1c(-c3nc(-c4ccccc4)co3)ncn1-2` [Compound 302] and `COc1ccc2c(c1)-c1nnc(COc3ccccc3)n1Cc1c(-c3nc(C)no3)ncn1-2` [Compound 118] cannot be ordered by Ki: less than 100 nM for the first, less than 100 nM for the second.

`COc1ccc(C#Cc2ncn3c2Cc2cnnn2-c2cc(OC)ccc2-3)cc1` [Compound 414] and `COc1ccc(C#Cc2ncn3c2Cc2cnnn2-c2cc(Cl)ccc2-3)cc1` [Compound 397] cannot be ordered by Ki: less than 100 nM for the first, less than 100 nM for the second.

`N#Cc1ncn2c1Cn1c(COc3ccccc3)nnc1-c1cc(Cl)ccc1-2` [Compound 197] and `C#Cc1ncn2c1Cn1c(COc3ccccc3)nnc1-c1cc(Cl)ccc1-2` [Compound 205] cannot be ordered by Ki: less than 100 nM for the first, less than 100 nM for the second.

Compared with `C#Cc1ncn2c1Cc1c(C(=O)c3ccc(Cl)cc3)nnn1-c1cc(OC)ccc1-2` [Compound 219], `C#Cc1ncn2c1Cc1c(C(=O)c3ccc(F)cc3)nnn1-c1cc(OC)ccc1-2` [Compound 218] is lower in Ki: 100 to 1000 nM for the first, less than 100 nM for the second. The second binds more tightly here.

First: CC#Cc1ncn2c1Cc1cnnn1-c1cc(OC)ccc1-2 [Compound 410]
Second: CC(C)C#Cc1ccc2c(c1)-n1nncc1Cc1c(C#CC(C)C)ncn1-2 [Compound 453]
The Ki of the first is lower: less than 100 nM for the first, 100 to 1000 nM for the second.

`CCOC(=O)c1ncn2c1Cc1c(Cc3ccccc3)nnn1-c1cc(C)ccc1-2` [Compound 101] and `CCOC(=O)c1ncn2c1Cc1c(Cc3ccccc3)nnn1-c1cc(F)ccc1-2` [Compound 6] cannot be ordered by Ki: less than 100 nM for the first, less than 100 nM for the second.

Compared with `COCc1nnn2c1Cc1c(C3=N[C@@H](C)CO3)ncn1-c1ccc(OC)cc1-2` [Compound 298], `CCOC(=O)c1ncn2c1Cc1c(COc3cccc(OC)c3)nnn1-c1cc(OC)ccc1-2` [Compound 11] is lower in Ki: 100 to 1000 nM for the first, less than 100 nM for the second.

Compared with `Cc1nnn2c1Cc1c(C3=N[C@H](c4ccccc4)CO3)ncn1-c1ccc(Cl)cc1-2` [Compound 377], `Cc1nnn2c1Cc1c(C3=N[C@@H](c4ccc(F)cc4)CO3)ncn1-c1ccc(Cl)cc1-2` [Compound 379] is higher in Ki: less than 100 nM for the first, 100 to 1000 nM for the second.

`COc1ccc2c(c1)-c1nnc(COc3cccc(F)c3)n1Cc1c(C#N)ncn1-2` [Compound 196] and `FC(F)=Cc1ncn2c1Cn1c(COc3ccccc3)nnc1-c1cc(Cl)ccc1-2` [Compound 199] cannot be ordered by Ki: less than 100 nM for the first, less than 100 nM for the second.

`COc1ccc2c(c1)-n1nncc1Cc1c(-c3nc(-c4ccccc4)co3)ncn1-2` [Compound 388] and `Cc1nnn2c1Cc1c(-c3nc(C(C)C)no3)ncn1-c1ccccc1-2` [Compound 132] cannot be ordered by Ki: less than 100 nM for the first, less than 100 nM for the second.

`CC(C)OCc1nnc2n1Cc1c(C3=N[C@@H](c4ccccc4)CO3)ncn1-c1ccc(Cl)cc1-2` [Compound 270] and `COCc1nnc2n1Cc1c(C3=N[C@@H](c4ccccc4OC)CO3)ncn1-c1ccc(Cl)cc1-2` [Compound 331] cannot be ordered by Ki: less than 100 nM for the first, less than 100 nM for the second.

First: Cc1ncn2c1Cc1c(C)nnn1-c1ccccc1-2 [Compound 121]
Second: Cc1nnn2c1Cc1c(C#N)ncn1-c1ccccc1-2 [Compound 115]
The Ki of the first is higher: greater than 1000 nM for the first, 100 to 1000 nM for the second.

`CCOC(=O)c1ncn2c1Cc1c(Cc3ccc(Cl)cc3)nnn1-c1cc(F)ccc1-2` [Compound 45] and `Cc1nnn2c1Cc1c(-c3noc(C(F)(F)F)n3)ncn1-c1ccc(F)cc1-2` [Compound 150] cannot be ordered by Ki: less than 100 nM for the first, less than 100 nM for the second.

`COCc1nnc2n1Cc1c(C3=NCCO3)ncn1-c1ccc(Cl)cc1-2` [Compound 238] and `COCc1nnc2n1Cc1c(-c3nc(C(C)C)no3)ncn1-c1ccc(Cl)cc1-2` [Compound 206] cannot be ordered by Ki: less than 100 nM for the first, less than 100 nM for the second.

`COCc1nnc2n1Cc1c(C3=N[C@@H](c4cc(F)ccc4F)CO3)ncn1-c1ccc(Cl)cc1-2` [Compound 335] and `COCc1nnc2n1Cc1c(C3=N[C@@H](c4ccc(C(F)(F)F)cc4)CO3)ncn1-c1ccc(Cl)cc1-2` [Compound 337] cannot be ordered by Ki: less than 100 nM for the first, less than 100 nM for the second.

`C#Cc1ncn2c1Cc1c(C)nnn1-c1ccccc1-2` [Compound 161] showed a Ki of less than 100 nM.

same assay, conditions: inhibition of [3H]Ro15-1788 binding; reported as ranges

`COCc1nnc2n1Cc1c(COc3ccc(F)cc3)ncn1-c1ccc(Cl)cc1-2` [Compound 435] and `COCc1nnc2n1Cc1c(COc3ccccc3)ncn1-c1ccc(Cl)cc1-2` [Compound 429] cannot be ordered by Ki: greater than 1000 nM for the first, greater than 1000 nM for the second.
